“Also recorded” adds a separate entry of the source.
Experiments:
isolated rat aorta = assay: In vitro induction of tolerance to NO releasing compounds (vasorelaxation of pre-exposed aortic rings, incl. cross-tolerance); format: cell-based; conditions: for tolerance induction after pre-treatment with the same compound: rat aorta pre-treated with epinephrine and then 0.44 mM of the compound
Method: Aortic rings were prepared as described hereinabove, and were exposed to 0.44 mM GTN (vehicle was water:ethanol:propyleneglycol at proportional ratio of 1:1:1) for 1 hour before CCRC construction, to thereby induce tolerance to nitroglycerine. At the end of the tolerance induction period, rings were thrice washed with the path buffer (Krebs-bicrbonate) every 15 minutes for the following hour and then CCRC for vasorelaxation on GTN-induced tolerance rings were constructed for GTN (pretreated versus untreated rings, FIG. 15), in order to verify the ability to induce and measure GTN tolerance induction in vitro
Attempted induction of tolerance to the NO-donating compounds of the present invention was performed under the same conditions as for GTN. Thus, in an exemplary experiment, rings were exposed to 0.44 mM solution of Pet-3 in the attempt to induce tolerance for Pet-3. CCRC were then measured for the vasorelaxing effect of Pet-3 on a group of rings which were pre-exposed to Pet-3 as to induce tolerance to Pet-3, and for an untreated control group. The above protocol was repeated with Pet-2, Pet-7, Pet-8, Pet-12, Pet-24, Pet-43, Pet-149 and Pet-152.
Cross-tolerance studies were conducted using the same technique described above for measuring vasorelaxation of aortic rings from rats. Two groups of aortic rings samples were pre-treated with GTN, then one group was measured for vasorelaxation by GTN and the second group for vasorelaxation by Pet-12, an exemplary NO-donor according to the present invention. For the opposite cross-tolerance studies, two groups of aortic rings samples were pre-treated with Pet-12, then one group was measured for vasorelaxation by GTN and the second group for vasorelaxation by Pet-12.

[1] = test system: c-GMP in slices of thoracic aorta of rats; assay: Cyclic-GMP measurement in aortic rat tissue (radioimmunoassay); format: cell-based; conditions: for cGMP Post-infusion: rat aorta, post-infusion (repeated treatment)
Method: GTN (10^−6 M) was added to the chamber and, 1 minute after exposure to the drug, rings (usually 3-5) were taken, wrapped with aluminum foil and immediately frozen in liquid nitrogen for storage. Control sample group was treated with the vehicle solution only. At the time of analysis, rings were thawed, blotted over a dry gauzed and weighted. A known weight of tissue was homogenized in 2 ml ice-cold modified Hank's balanced salt solution containing (in gram/liter) NaCl 8; KCl 0.4; glucose 1; KH2PO4 0.06; Na2HPO4 0.047; Phenol red 0.017 and further containing 25 mM EDTA (disodium salt). The homogenate was centrifuged at 4000 g (force units) for 10 minutes at 2-4° C. and the supernatant was thereafter transferred into fresh pre-cooled test tube containing 1 ml of acetonitrile. The tubes were vortex mixed for a few seconds and subsequently centrifuged at 4000 g for 5 minutes at 2-4° C., to remove the precipitated protein. Each supernatant was transferred into a clean test tube and evaporated to dryness under a stream of nitrogen at 55° C. The dry residue was reconstituted with 10 volumes of Tris-EDTA buffer pH 7.5 (0.05 M Tris containing 4 mM EDTA). Aliquots of 100 μl of the reconstituted solution in duplicate were used for c-GMP measurements using Amersham RIA kit, as is described in Haj-Yehia & Benet [Pharmacology, 1995, 273, 1, pp. 94-100]. Standard curves were plotted with six concentrations (0, 0.5, 1, 2, 4 and 8 pmoles of c-GMP per tube).
The NO-tolerance effect of GTN and NO-donor compounds according to the present invention was measured by following the production of c-GMP in slices of thoracic aorta of rats. Thus, the production of c-GMP was measured as described in the methods section above for the reference NO-donor compound GTN, and for the NO-donors of the present invention Pet-2, Pet-3, Pet-7, Pet-8, Pet-10, Pet-12, Pet-24, Pet-59, Pet-147, Pet-149, Pet-152, Pet-154 and Pet-155.

[2] = test system: cGMP in thoracic aorta of rats treated in vivo; assay: Induction of in vivo nitrate tolerance (16 hour infusion, then cGMP in isolated aorta); set-up: species or system rat; conditions: rats infused in vivo 16 hours, aorta re-exposed to the compound
Method: Male Sprague Dawley rats (220 to 250 grams) were housed under constant temperature and humidity conditions. Light was maintained at a 12/12 light dark cycle. Except for 12 hours before the experiment, when food fasting was initiated, all rats had free access to standard rat pellet diet and tap water. The animals were anesthetized by intraperitoneal injection of ketamine and xylazine combination (50 and 10 milligram per kilogram, respectively). […] The catheters were filled with normal saline solution containing 1000 IU/ml of heparin and plugged with a metal pin. Catheters were externalized to the back of the neck region and secured by a polyester felt disk.
After implantation, the rats were individually housed until they regained their preoperative weight and appeared healthy (3 to 4 days post-operation). At this time point (day 0), an osmotic mini-pump (Alza Corp., Palo Alto, Calif.) delivering constant volume (10 μl/hour) of vehicle or drug was connected to one of the intravenous catheters.
For inducing tolerance to the tested NO-donor according to the present invention, the animals received 200 μg/hour of the tested compound for 16 hours (short-term-induced tolerance). A similar number of animals were processed by the same surgical procedure and received the vehicle alone (10 μl/hour of a solution consisting of 30% ethanol and 30% propylene glycol in sterile distilled water for injection).
At the end of the infusion periods used for the development of tolerance (16 hour), the rats were anesthetized as described above, the two catheters were externalized and the delivering catheters were disconnected from the mini-pump. The abdomen was opened by midline incision and the thoracic aorta were isolated, washed and cleaned from the surrounding tissues. Strips of the treated aortas were pooled in chambers containing Krebs-Hanseliet buffer (10 ml), and exposed to 1 μM of the tested NO-donor (final concentration) for 120 seconds. The tissues were quickly collected and frozen in liquid nitrogen for cGMP measurement, described hereinabove.

[3] = test system: anesthetized hypertensive Sprague-Dawley male rats; assay: Hypotensive effects: mean arterial pressure after iv bolus in phenylephrine-treated rats; format: in vivo, rat
Description: These techniques were also used to detect tolerance induction by the NO-donors of the present invention and by GTN. For c-GMP levels and tolerance development, the rat's thoracic aorta was isolated after exposure to the tested compound in vivo, and measured as described above in the in vitro assays.
Mean arterial pressure (MAP) was monitored and determined during bolus infusion of Pet-2, Pet-3, Pet-7, Pet-8, Pet-12 and Pet-13. Briefly, polyethylene catheters (PE50) were inserted into the carotid artery and into the jugular vein of anesthetized hypertensive Sprague-Dawley male rats (200-300 grams). A blood pressure recorder was placed within the carotid artery. Phenylephrine (0.1 mg) was then injected and the mean arterial blood pressure (MABP) was monitored continuously until a stable baseline was reached. The hypotensive effects of intravenous (iv) bolus doses (0.1 mg of each tested compound) administered intravenously at the jugular vein in minimal volume of vehicle (0.2 ml per dose) were evaluated. Five minutes were allowed between each dose, during which the maximal decrease in MAP was recorded and a dose-response graph comparing the hypotensive effect of the compounds was constructed.

SMILES	tolerance induction after pre-treatment with the same compound (isolated rat aorta)	cGMP Post-infusion [1]	c-GMP level following a repeated treatment ([1]; slices of thoracic aorta of rats)	tolerance in vivo: cGMP level in aorta following repeated treatment [2]	effect on MAP following successive administrations ([3]; iv bolus doses, rats)	vasorelaxation in rings pre-treated with GTN (cross-tolerance) (isolated rat aorta; rat aorta pre-treated with epinephrine and then with GTN)	vasorelaxation in rings pre-treated with Pet-12 (cross-tolerance) (isolated rat aorta; rat aorta pre-treated with epinephrine and then with Pet-12)	hypotensive / vasorelaxation effect on heightened mean arterial blood pressure ([3]; rats pre-treated in vivo with phenylephrine, iv bolus 10-100 micrograms)
O=[N+]([O-])OCC(CO[N+](=O)[O-])O[N+](=O)[O-] [GTN, glyceryl trinitrate, reference compound]	tolerance induced	45 ± 12^¥ pmol/g tissue	significantly reduced	tolerance inducing effect; also recorded: decreased	attenuation			
Cc1nc(-c2cccnc2)sc1CCO[N+](=O)[O-] [Pet-12, 3-[4-Methyl-5-(2-nitrooxy-ethyl)-thiazole-2-yl]-pyridine]	absence of tolerance induction	112 ± 12 pmol/g tissue		absence of tolerance induction; also recorded: absence of tolerance effect; also recorded: lack of tolerance induction		absence of tolerance induction effect; also recorded: no effect on the vasorelaxation capacity	absence of tolerance induction effect; also recorded: does not evoke tolerance to itself not to GTN	vasorelaxation effect
